Patent publication US20170360947A1, “POLYMER PARTICLES AND BIOMATERIALS COMPRISING THE SAME” (UNIVERSITE DE BORDEAUX, priority 2014, published 2017)
Values after ≈ are worked out from the molar mass of the structure shown.

Key:
MRSA BCB8 = test: MIC determination in Mueller-Hinton broth (absorbance at 600 nm); type: cell-based, S. aureus
Experimental: From a 24 h bacterial culture, MRSA BCB8 were suspended in Mueller-Hinton broth to obtain a 0.5 McF suspension, which was diluted to a final concentration of 1.10^6 CFU·ml^−1.
Then twofold serial dilutions of chemicals were prepared (from 256 μg·ml^−1 to 0.06 μg·ml^−1) and 100 μl of MRSA BCB8 suspension were incubated with 200 μl of chemical containing solutions for 24 h at 37° C.
After this time, suspension absorbances were measured at 600 nm. MICs were determined as the minimal concentration for which the lowest absorbance is observed.

[1] = system: MRSA strain obtained from blood cultures; test: Gentamicin susceptibility of the MRSA strain studied in vivo; type: cell-based, S. aureus
Experimental: Strain studied: an MRSA strain obtained from blood cultures (gentamicin MIC<0.5 μg/mL). Assessment of the animal model was realized with 10^3 CFU/mL inoculum.

α-Norbornenyl-ω-Vancomycin Poly(Ethylene Oxide) [macro Vanco]
MIC (MRSA BCB8; MRSA BCB8, 24 h at 37° C., lowest absorbance at 600 nm): 1.3 µg/mL

gentamicin
gentamicin MIC [1]: < 0.5 µg/mL

CN[C@H](CC(C)C)C(=O)N[C@H]1C(=O)N[C@@H](CC(N)=O)C(=O)N[C@H]2C(=O)N[C@H]3C(=O)N[C@H](C(=O)N[C@H](C(=O)O)c4cc(O)cc(O)c4-c4cc3ccc4O)[C@H](O)c3ccc(c(Cl)c3)Oc3cc2cc(c3O[C@@H]2O[C@H](CO)[C@@H](O)[C@H](O)[C@H]2O[C@H]2C[C@](C)(N)[C@H](O)[C@H](C)O2)Oc2ccc(cc2Cl)[C@H]1O [Vancomycin]
MIC (MRSA BCB8; Staphylococcus aureus, MRSA, 24 h): 0.6 µg/mL (≈ 0.414 µM)
